Results reported in patent publication US20240382516A1, “PHARMACEUTICAL COMPOSITION FOR INCREASING MITOCHONDRIAL ACTIVITY AND/OR IMPROVING ADIPONECTIN PRODUCTION” (LOGICK ENERGETICS B.V., priority 2021, published 2024).

Key:
Type in all cases: cell-based
[1] = tested on: Adiponectin gene expression in 3T3-L1 cells; test: qPCR adiponectin gene expression in 3T3-L1 cells; settings: 72 hours incubation, A 5.0 μg/ml, B 50 μM, C 1.0 μM
Procedure: • DMEM • 10% heat inactivated FCS • Compound A—5.0 μg/ml • Compound B-50 μM • Compound C-1.0 μM • Compound A+B • Compound A+C Protocol 3T3-L1 cell line • DMEM • 10% heat inactivated FCS • Compound A-[…] • Compound B-50 μM • Compound C-1.0 μM • Compound A+B • Compound A+C
In the of presence of: • 0.25 μM Dexamethasone & • 1 μg/ml Insulin • Therein A=pentosan, B=indomethacin, and C=pioglitazone.
Cells were stimulated at day 4 when they were sub confluent. After 72 hours of incubation, RNA was isolated from the cells.

Ppargc1a = Ppargc1a log2Foldchanges, RNA isolated from stimulated KS-cells; settings: for effect on changes in Ppargc1a activity (in words): 3 and 7 days stimulation
From the text: Therein A=pentosan, B-indomethacin, and C=pioglitazone. The RNA is isolated after 3 and 7 days stimulation in KS-cells, respectively. Ppargcla is considered particularly relevant for mitochondrial activity. A higher value represents a higher activity.

[2] = tested on: Cox family of sub-unit proteins of mitochondrial complex 4; test: Gene expression Log2fold change, Cox family, KS483 cells; settings: 7 days of stimulation
[3] = tested on: Nduf family of sub-unit proteins of mitochondrial complex 1; test: Gene expression Log2fold change, Nduf family, KS483 cells; settings: 7 days of stimulation

Molecule | COX4iL Log2fold change [2] | COX5a Log2fold change [2] | COX5b Log2fold change [2] | COX6b1 Log2fold change [2] | COX7a2L Log2fold change [2] | COX8a Log2fold change [2] | COX15 Log2fold change [2] | COX17 Log2fold change [2] | COX19 Log2fold change [2] | COX20 Log2fold change [2] | Nduf4 0 Log2fold change [3] | Ndufa5 Log2fold change [3] | Ndufa9 Log2fold change [3] | Ndufa10 Log2fold change [3] | Ndufab1 Log2fold change [3] | Ndufaf7 Log2fold change [3] | Ndufb3 Log2fold change [3] | Ndufb4 Log2fold change [3] | Ndufb9 Log2fold change [3] | Ndufb10 Log2fold change [3] | also measured
COc1ccc2c(c1)c(CC(=O)O)c(C)n2C(=O)c1ccc(Cl)cc1 [Compound B, indomethacin] | 0 | 0 | 0 | 0 | 0 | 0 | 0 | 0 | 0 | 0 | 0 | 0 | 0 | 0 | 0 | 0 | 0 | 0 | 0 | 0 | effect on Adiponectin gene expression (FIG. 1) [1]: show adiponectin gene expression; effect on changes in Ppargc1a activity (in words) (Ppargc1a): no measurable effect; Ndufc1 Log2fold change [3]: 0; Ndufs10 Log2fold change [3]: 0; Ndufs20 Log2fold change [3]: 0; Ndufv1 Log2fold change [3]: 0; Ndufv3 Log2fold change [3]: 0
CCc1ccc(CCOc2ccc(CC3SC(=O)NC3=O)cc2)nc1 (stereo not drawn) [Compound C, pioglitazone] | 0 | 0 | 0 | 0 | 0 | 0 | 0 | 0 | 0 | 0 | 0 | 0.57 | 0 | 0 | 0 | 0.35 | 0 | 0 | 0 | 0 | Ndufc1 Log2fold change [3]: 0; Ndufs10 Log2fold change [3]: 0; Ndufs20 Log2fold change [3]: 0; Ndufv1 Log2fold change [3]: 0; Ndufv3 Log2fold change [3]: 0
pentosan polysulphate [Compound A] | 0 | 0.31 | 0 | 0 | −0.42 | 0 | 0 | 0 | 0 | 0 | 0 | 0 | 0 | 0 | 0 | 0 | 0 | 0 | 0 | 0 | effect on Adiponectin gene expression (FIG. 1) [1]: hardly any effect; effect on changes in Ppargc1a activity (in words) (Ppargc1a): some effect; Ppargc1a log2Foldchanges (Ppargc1a; 3 days stimulation): 1.14; Ppargc1a log2Foldchanges (Ppargc1a; 7 days stimulation): 1.3; Ndufc1 Log2fold change [3]: 0; Ndufs10 Log2fold change [3]: 0; Ndufs20 Log2fold change [3]: 0; Ndufv1 Log2fold change [3]: 0; Ndufv3 Log2fold change [3]: 0
